Source: paper PMC10569036

Experiment: shake flask on a mixture of 185; loss from the water phase only; LC-Orbitrap peak areas
Conditions: room

SMILES | log partition 1-octanol / HPLC water, unbuffered, traces of methanol / DMSO | log partition butyl acetate / HPLC water, unbuffered, traces of methanol / DMSO | log partition chloroform / HPLC water, unbuffered, traces of methanol / DMSO | log partition cyclohexane / HPLC water, unbuffered, traces of methanol / DMSO | log partition dichloromethane / HPLC water, unbuffered, traces of methanol / DMSO | log partition n-hexane / HPLC water, unbuffered, traces of methanol / DMSO | log partition n-octane / HPLC water, unbuffered, traces of methanol / DMSO | log partition n-undecane / HPLC water, unbuffered, traces of methanol / DMSO | log partition oleylalcohol / HPLC water, unbuffered, traces of methanol / DMSO | log partition toluene / HPLC water, unbuffered, traces of methanol / DMSO
CN(C)c1ccc(Cc2ccc(N(C)C)cc2)cc1 | 0.3418 log10 | 1.067 log10 | 3.139 log10 | 0.5577 log10 | 2.123 log10 | -0.5531 log10 | 0.3458 log10 | -0.4236 log10 | -0.165 log10 | 1.554 log10
O=C1C=CC(=O)N1c1ccc(Cc2ccc(N3C(=O)C=CC3=O)cc2)cc1 | -0.1715 log10 | -0.4086 log10 | -0.4673 log10 | -0.523 log10 | 0.07258 log10 | -0.4156 log10 | -0.5042 log10 | -0.6476 log10 | -0.3131 log10 | 0.01296 log10
Nc1nc(Cl)nc2c1ncn2[C@H]1C[C@H](O)[C@@H](CO)O1 | 0.3863 log10 | -0.3544 log10 | -0.3218 log10 | -1.47 log10 | -0.9957 log10 | -1.176 log10 | -1.209 log10 | -1.567 log10 | -0.4024 log10 | -0.8939 log10
CCCCCCCCCCCCN1CCCCCC1=O | -0.1202 log10 | -1.099 log10 | 0.3816 log10 | -0.5564 log10 | -0.008559 log10 | -0.8813 log10 | -0.4901 log10 | -0.9092 log10 | -0.7875 log10 | -0.5083 log10
CCCCCCCCCCCC(=O)OCC(O)CO (centres unmarked) | -0.5214 log10 | -0.773 log10 | -0.7717 log10 | -1.167 log10 | -0.6352 log10 | -1.755 log10 | -1.639 log10 | -1.584 log10 | -1.087 log10 | -1.18 log10
COC(=O)c1sccc1S(N)(=O)=O | 1.602 log10 | 1.673 log10 | 1.568 log10 | -1.037 log10 | 1.105 log10 | -1.408 log10 | -1.192 log10 | -1.316 log10 | 0.8181 log10 | 0.3445 log10
CCCCC(CC)C(=O)OCCOCCOCCOCCOC(=O)C(CC)CCCC (centres unmarked) | 1.119 log10 | -0.08786 log10 | -0.484 log10 | -2.242 log10 | -0.03133 log10 | -1.802 log10 | -2.665 log10 | -0.9886 log10 | 1.482 log10 | 0.3117 log10
CC(=O)Nc1ccc(C)cc1C | 0.5136 log10 | 0.7692 log10 | 0.52 log10 | – | 0.8573 log10 | – | – | – | 0.7926 log10 | 0.01564 log10
CCCCC(CC)COC(=O)c1ccccc1C(=O)O (centres unmarked) | -0.191 log10 | -0.07834 log10 | 0.168 log10 | -0.8356 log10 | 0.3352 log10 | -1.06 log10 | -1.182 log10 | -1.177 log10 | -0.5168 log10 | -0.2474 log10
NC(=O)N/N=C/c1ccc([N+](=O)[O-])o1 | 1.712 log10 | 0.5487 log10 | 0.2279 log10 | – | 0.3361 log10 | – | – | – | 0.1785 log10 | -0.2455 log10
CCCCCCOc1cc(C)c(O)c(C)c1C | -0.6155 log10 | -0.05403 log10 | 0.3185 log10 | -0.4525 log10 | -0.07725 log10 | -0.4691 log10 | -0.1513 log10 | -0.6506 log10 | 0.4249 log10 | -0.2013 log10
C=CC(=O)OCC1CC2CC1C1CCC(COC(=O)C=C)C21 (centres unmarked) | 0.2948 log10 | -0.12 log10 | 0.01457 log10 | -0.1351 log10 | 0.05615 log10 | -0.1023 log10 | -0.1158 log10 | 0.0297 log10 | 0.1091 log10 | 0.1587 log10
O=C(O)CCN(C1(C(=O)NO)CCCC1)S(=O)(=O)c1ccc(Oc2ccc(F)cc2)cc1 | -0.5893 log10 | 1.182 log10 | 0.09364 log10 | -1.331 log10 | 0.4348 log10 | -1.472 log10 | -1.686 log10 | 0.1413 log10 | 0.5204 log10 | -0.3191 log10
